Counter-ions that a name gives are not always drawn.
How the values were obtained:
female CRL:CD rats = experiment: Bone densitometry (pQCT) of right femur in rats; type: in vivo, rat; details: oral once a day, 14 consecutive days, 15 mg/kg
Procedure: (§1) For in vitro osteogenesis, human adipose-derived stem cells (hADSC) (Invitrogen, UK; catalogue number R7788-115) were seeded into 12-well plates at a density of 5000 cells/cm^2 and were cultured in a basal media of phenol red-free Dulbecco's Modified Eagles Medium (DMEM; Sigma-Aldrich, UK; catalogue number D1145) supplemented with 5% fetal bovine serum (FBS, Gibco, UK; catalogue number 10270) and 2 mM GlutaMax® (Gibco; catalogue number 35050). […] The formation of mineralized bone nodules was assessed during the time-course using Alizarin Red S staining. […] The amount of mineralisation was quantified through the extraction of the Alizarin Red S stain from bone nodules using a cetylpyridinium chloride extraction method, previously described (Gregory et al., Analytical Biochemistry, 2004, 329: 77-84; Hwang et al., Stem Cells and Development 17: 963-970, 2008). […] Following incubation, 200 μl aliquots were transferred to 96-well format and the absorbance at 550 nm was determined using a microplate spectrophotometer (SpectraMax Plus, Molecular Devices, USA). Data were expressed as mean absorbance at 550 nm±Standard error of mean (SEM). […] Data are shown as mean absorbance at 550 nm and analysed using one-way ANOVA followed by Tukey's multiple comparison post hoc test: n=9; ***, P<0.001. […]

[1] = tested on: N-terminal propeptide of type I procollagen (P1NP); experiment: Bone biomarker evaluation: serum P1NP assay; type: in vivo, rat; details: oral once a day, 7 consecutive days, female CRL:CD rats
Procedure: as §1

[2] = tested on: human adipose-derived stem cells (hADSC); experiment: Osteogenic differentiation and assessment of mineralisation in vitro (Alizarin Red S); type: cell-based; details: 300 nM; 24 days of cell culture; relative to vehicle control (0.2% DMSO)
Procedure: as §1

## COCCCNCCCc1ccc(-c2cnc(N)c(C(=O)Nc3cccnc3)n2)cc1 [Example 1, 3-Amino-6-(4-{3-[(3-methoxypropyl)amino]propyl}phenyl)-N-pyridin-3-ylpyrazine-2-carboxamide tri-hydrochloride]
Female CRL:CD rats
  Increase in right femur metaphysis total BMD compared with vehicle treated rats: 6.6%
  Total BMD in femur (mean±SEM): 814.41 ± 15 mg/mL
[1]
  Serum P1NP levels (marker of bone formation): increase in serum P1NP levels
[2]
  Alizarin red S staining of mineralised bone nodules: significantly induced progenitor cell commitment and osteoblast differentiation

Source: patent US8198285B2, “Pyrazine derivatives” (Astrazeneca AB, priority 2010, dated 2012)
